The values that follow come from US10899739B2, “Macrophage migration inhibitory factor inhibitors, and methods of making and using same” (YALE UNIVERSITY, priority 2017, dated 2021).

The conditions of data set [1]: shake-flask; data for previously reported analogs of 1 and 2; cited from earlier work.
The nature of data set [2]: aqueous solubility, shake-flask procedure. Type of data set: physicochemical. Particulars: aqueous buffer, thermodynamic from solid, Britton-Robinson buffer pH 6.5, read-out: Aqueous Solubility S. As for the experimental part:
For the assaying, inhibition constants Ki were determined as before using 4-hydroxyphenylpyruvic acid (HPP) as the substrate (Cisneros, et al., 2016, Bioorg. Med. Chem. Lett. 26:2764-2767). Inhibitory activity is monitored by measuring formation of the borate complex of the enol product at 305 nm using a Tecan Infinite F500 plate reader. Binding constants Kd were also obtained for the new compounds using a fluorescence polarization assay (Cisneros, et al., 2016, J. Am. Chem. Soc. 138:8630-8638). […] Saturated solutions in Britton-Robinson buffer (pH 6.5) are filtered (Acrodisc syringe, 0.2 μm pore) and analyzed by UV-vis spectroscopy (Agilent 8453).

The target of data set [3] is T1, MIF (Homo sapiens, UniProt P14174).
T1 construct: made in house
T1 sequence (P14174 2-115 limits assumed): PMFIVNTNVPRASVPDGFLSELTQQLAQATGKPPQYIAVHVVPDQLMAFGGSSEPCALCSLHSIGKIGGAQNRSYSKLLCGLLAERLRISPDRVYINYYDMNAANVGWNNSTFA
Put plainly: fluorescence polarization binding assay. A general note: Polarisation of emitted light reports the rotation of a fluorescent probe.

Data set [4] deals with T1, MIF. Put plainly: MIF tautomerase inhibition assay with 4-hydroxyphenylpyruvic acid (HPP) as substrate. In kind it is biochemical.

≈ marks a conversion by molar mass, not a printed value. Where “and” joins values, the source holds several entries; their conditions need not be identical. Equal values may be shown once. Read-outs that look alike come from different tables or passages of the source.

In the case of `OCCOc1ccc2nc(-c3cn(-c4ccc(O)cc4)nn3)ccc2c1` [Compound 1b], in data set [1], the “Aqueous Solubility S” value is 2.6 µg/mL.

On to `NCCOc1ccc2nc(-c3cn(-c4ccc(O)cc4)nn3)ccc2c1` [Compound 1c], for which the “Aqueous Solubility S” value in data set [1] was 3.7 µg/mL.

With `O=C(O)COc1ccc2nc(-c3cn(-c4ccc(O)cc4)nn3)ccc2c1` [Compound 1f], the “Aqueous Solubility S” value in data set [1] was 365 µg/mL.

As to `O=C(O)COc1ccc2nc(-c3cn(-c4ccc(O)c(F)c4)nn3)ccc2c1` [Compound 2c], in data set [1], the “Aqueous Solubility S” value was 37.0 µg/mL.

The solubility is the dissolved amount per volume that the medium holds. Regarding `O=C(O)Cn1ccc2ccc(-c3cn(-c4ccc(O)c(F)c4)nn3)nc2c1=O` [Compound 4b, 2-(2-(1-(3-fluoro-4-hydroxyphenyl)-1H-1,2,3-triazol-4-yl)-8-oxo-1,7-naphthyridin-7(8H)-yl)acetic acid], in data set [2], the solubility was 288 µg/mL (≈ 755 µM).

As a reminder, the Kd is the concentration at which binding is half-saturated. As a reminder, the Ki is the dissociation constant of the complex between target and ligand, obtained from inhibition or displacement. Consider “methyl 3-(4-hydroxyphenyl)-4,5-dihydroisoxazole-5-carboxylate [ISO-1]”, for which the dissociation constant Kd was 23 µM and 23.1 µM in data set [3] (fluorescence polarization, new compounds and ISO-1, read-out: Binding Constants Kd); 20 to 30 µM in data set [3] (spread of four measurements, read-out: Kd, results of repeated measurements). In addition, the Ki in data set [4] (HPP substrate, new naphthyridinones and ISO-1, read-out: Experimental Inhibition Constants Ki) was 30 µM and 30.1 µM; in data set [4] (spread of nine measurements, read-out: Ki, results of repeated measurements) it was 21 to 39 µM.
